The subject of data set [1] is Aspergillus fumigatus Kawasaki strain. The experiment in a line: In vivo antifungal activity, Aspergillus fumigatus infected mice, oral. Further details: species or system mouse. Conditions: 25 mg/kg p.o. twice a day, 4 days, in 0.5% MC (ITZ: in PEG 400). The method, then:
Asperoillus fumigatus Kawasaki strain having been cultured at 27° C. for 1 week was suspended in physiological saline, and the suspension (3×10^6 cells) was injected into the tail vein of a 4-week-old day male mouse (9 mice per group). Two days before the infection and on the day of the infection, 100 mg/kg of cyclophosphamide was intraperitoneally administered to each animal.
For comparison, compound (A) shown below which is described in EP 0421210A2, fluconazole (FCZ) and itraconazole (ITZ), were used as a comparative substance. Itraconazole was administered in a polyethylene glycol (400) solution. [drawing 4]

Data set [2] in a line: Toxicity in maintained administration in rats. Type of data set: in vivo, Crj:CD male rat. The conditions noted are these: 100 or 300 mg/kg once a day, 2 weeks, in 0.5% MC. How it is done:
A 6-week-old Crj:CD male rat (6 rats per group) was maintained on the compound of Example 1 or fluconazole suspended in 0.5% MC at a dose of 100 mg/kg or 300 mg/kg once a day for 2 consecutive weeks. Manifestations of toxicity were observed through observation of general signs, body weight measurement, biochemical examination of blood, organ weight measurements, and postmortem examinations.

Data set [3] concerns Aspergillus fumigatus Kawasaki strain. The experiment in a line: In vivo antifungal activity, Aspergillus fumigatus infected mice, i.v. The arrangement: species or system mouse. The conditions noted are these: 12.5 mg/kg i.v. twice a day, 4 days, Example 1 as G2-β-CyD complex, FCZ in saline. How it is done:
Aspergillus fumigatus Kawasaki strain having been cultured at 27° C. for 1 week was suspended in physiological saline, and the cell suspension (3×10^6 cells) was injected into the tail vein of a 4-week-old day male mouse (9 mice per group). Two days before the infection and on the day of the infection, 100 mg/kg of cyclophosphamide was intraperitoneally administered to each animal.
(§1) For comparison, fluconazole was used as a comparative substance.

Data set [4] has as its system Candida albicans CAA-14 strain. Description: In vivo antifungal activity, Candida albicans infected mice, i.v. The arrangement: species or system ICR male mouse. Conditions: 5 mg/kg i.v. twice a day, 2 days, Example 1 as G2-β-CyD complex, FCZ in saline. How it is done:
Candida albicans CAA-14 strain having been cultured at 30° C. for 24 hours was suspended in physiological saline, and the cell suspension (5×10^6 cells) was injected into the tail vein of a 5-week-old ICR male mouse (9 mice per group). Two days before the infection and on the day of the infection, 100 mg/kg of cyclophosphamide was intraperitoneally administered to each animal.
as §1

In the case of `OC(Cn1cncn1)(Cn1cncn1)c1ccc(F)cc1F` [FCZ, fluconazole, reference compound], in data set [1] (10 days observation), the “Mean Survival Days” value was 2.0 days. Also, in data set [1] (of 9 mice), the “Survival Number on Day 1” value is 9, the “Survival Number on Day 2” value is 9 and the “Survival Number on Day 3” value is listed as 0. Moreover, the manifestations of toxicity result in data set [2] is “production of hepatomegaly and enlargement of the suprarenalcapsules, with the degree thereof depending on dosage”. Besides, the “Mean Survival Days” value in data set [3] (10 days observation) is 2.0 days. In addition, in data set [3] (of 9 mice), the “Survival Number on Day 1” value came to 9, the “Survival Number on Day 2” value was 9 and the “Survival Number on Day 3” value was 0. Further, the “Mean Survival Days” value in data set [4] (10 days observation) was 6.3 days. In addition, in data set [4] (of 9 mice), the “Survival Number on Day 1” value is recorded as 9, the “Survival Number on Day 2” value amounted to 9, the “Survival Number on Day 3” value amounted to 8 and the “Survival Number on Day 4” value is given as 8. Besides, in data set [4] (of 9 mice), the “Survival Number on Day 5” value came to 8, the “Survival Number on Day 6” value amounted to 6, the “Survival Number on Day 7” value stood at 3 and the “Survival Number on Day 8” value is given as 2. Further, in data set [4] (of 9 mice), the “Survival Number on Day 9” value is on record as 2 and the “Survival Number on Day 10” value is 1.

These data come from patent publication US5312815A, “Fungicidal (+)-2-(2,4-difluorophenyl)-3-methyl-1-(1H-1,2,4-triazol-1-yl)3-(6-(1H-1, 2,4-triazol-1-yl)pyridazin-3-ylthio) butan-2-ol” (Roussel Morishita Co., Ltd., priority 1992, dated 1994).
